{
  "source": "patent US20230228764A1",
  "about": "“METHOD FOR THE DIAGNOSIS AND TREATMENT OF ESSENTIAL PRIMARY HYPERTENSION” (Universiteit Maastricht, priority 2020, published 2023)",
  "key": {"[1]": {"system": "femoral arteries of aged WT and KI mice", "assay": "Endothelium-independent relaxations induced by apo-sGC activator, wire myograph", "settings": "BAY 60-2770 0.01-10 μM", "method": "(§1) To test which component of NO-cGMP signalling was most likely affected, we tested an uncoupling effect on endothelial NO synthase or an oxidative damage of the NO receptor, soluble guanylate cyclase yielding oxidized or heme-free apo-sGC [51, 52]. To test for sGC/apo-sGC, relaxing responses to the NO donor compound and sGC stimulator, PAPA/NO (0.01-10 μM), and to the aposGC activator, BAY 60-2770 (0.01-10 μM), were analyzed.\n(§2) After mice were sacrificed, thoracic aortae, femoral and saphenous arteries were dissected free from perivascular adipose tissue and mounted in a wire myograph (DMT, Aarhus, DK). The organ chamber was filled with Krebs-Ringer bicarbonate-buffered salt solution (KRB) that was continuously aerated with 95% O2/5% CO2 and maintained at 37° C. […] Arterial contractile and relaxing responses were recorded at lumen diameters corresponding to a distending pressure of 100 mmHg in thoracic aorta and femoral artery and at 90% of this diameter in the resistance-sized saphenous artery. […] Consequently, wall stiffness can be determined equally by recording 1) changes in tension in response to imposed changes in radius (wire myography) or 2) changes in radius in response to changes in transmural pressure (pressure myography). […] The wall tension of the vessel segment was continuously recorded with LabChart Pro (AD Instruments, Oxford, UK)."}, "[2]": {"system": "femoral arteries of aged NOX5 KI mice", "assay": "Acetylcholine (Ach)-induced relaxation of isolated femoral arteries, wire myograph", "settings": "for Reversal of impaired Ach-induced relaxation by antioxidant: femoral arteries of aged KI mice contracted with 10 μM phenylephrine, Ach 10 μM", "source_text": "(§3) To test the effect of endothelial NOX5 on endothelium-dependent, NO-cGMP mediated relaxation, arterial segments were pre-contracted by either depolarization (K^+), α1-adrenergic activation (phenylephrine), or endothelin-1; vaso-relaxation was then induced by acetylcholine (Ach) the classical endothelium-derived relaxing factor stimulant. […] When comparing ours to previous studies, the Ach-induced relaxation of saphenous arteries of both mice groups seemed attenuated. There are two possible explanations for this discrepancy. First, we have used very old mice and other studies used young mice.\nAfter mice were sacrificed, thoracic aortae, femoral and saphenous arteries were dissected free from perivascular adipose tissue and mounted in a wire myograph (DMT, Aarhus, DK). The organ chamber was filled with Krebs-Ringer bicarbonate-buffered salt solution (KRB) that was continuously aerated with 95% O2/5% CO2 and maintained at 37° C. Passive stretch procedure was performed to mimic the physiologically relevant internal lumen diameter as previously described. Arterial contractile and relaxing responses were recorded at lumen diameters corresponding to a distending pressure of 100 mmHg in thoracic aorta and femoral artery and at 90% of this diameter in the resistance-sized saphenous artery. […] The diameter tension relationships were constructed according to the law of Laplace for a cylindrical tube: P=T/R (with P for transmural pressure, T for wall tension and R for the lumen radius of the tube). Consequently, wall stiffness can be determined equally by recording 1) changes in tension in response to imposed changes in radius (wire myography) or 2) changes in radius in response to changes in transmural pressure (pressure myography). Here we used the former approach because it has a higher throughput than the latter. Stress-strain relationships and even better “incremental elastic (Young's) modulus” (which require additional recording of wall thickness) only come into play to discriminate between structural and material property contributions to changes in arterial stiffness. Part of the isolated thoracic aorta was studied in the absence and part in the continuous presence of 10 μM indomethacin to inhibit production of prostaglandins that can act as endothelium-derived vasoactive factors in this vessel. The vessels were tested for their contractile response to 40 mM K^+, concentration-response curves of phenylephrine (0.01 to 100 μM) and endothelin-1 (1-256 nM) followed by acetylcholine (Ach) (0.01 to 100 μM), PAPA/NO (0.01-10 μM) or Bay60-2770 (0.01-10 μM)-induced relaxations. The wall tension of the vessel segment was continuously recorded with LabChart Pro (AD Instruments, Oxford, UK)."}, "[3]": {"system": "thoracic aorta of aged KI and WT mice", "assay": "Ach-induced relaxation of isolated thoracic aorta, wire myograph", "settings": "thoracic aorta contracted with 258 nM endothelin-1, 100 μM L-NAME", "source_text": "as §3\nas §2, with “DK).” for “DK). The organ chamber was filled with Krebs-Ringer bicarbonate-buffered salt solution (KRB) that was continuously aerated with 95% O2/5% CO2 and maintained at 37° C.”"}, "[4]": {"system": "saphenous arteries of aged KI and WT mice", "assay": "Ach-induced relaxation of isolated saphenous arteries, wire myograph", "settings": "saphenous arteries contracted with endothelin-1; 100 μM L-NAME; both types of mice", "source_text": "as §3\nas §2, with “DK).” for “DK). The organ chamber was filled with Krebs-Ringer bicarbonate-buffered salt solution (KRB) that was continuously aerated with 95% O2/5% CO2 and maintained at 37° C.”"}, "[5]": {"system": "femoral arteries of aged NOX5 KI mice", "assay": "Measurement of superoxide formation: DHE staining", "settings": "pre-treatment with 500 μM L-NAME for 30 min at 37° C.", "method": "Superoxide was measured in femoral arteries using the florescence dye dihydroethidium (DHE) (Thermo Scientific Technology, The Netherlands). Frozen femoral arteries cryo-sections were fixated in 4% paraformaldehyde (PFA) in PBS and then incubated with 2 μM DHE for 30 minutes at 37° C. After three washing steps with PBS, slices were incubated with DAPI (Sigma-Aldrich, The Netherlands) […] for 10 min. Sections were washed in PBS and then mounted using a Dako Fluorescence Mounting Medium ([…], Agilent Technologies). Immunofluorescent signals were viewed using a Leica DM13000 B fluorescence microscope. Some arteries were pre-treated with 500 μM L-NAME for 30 min at 37° C. before performing the DHE staining."}, "[6]": {"system": "femoral arteries, saphenous arteries and thoracic aortae of aged WT and KI mice", "assay": "Endothelium-independent relaxations induced by NO donor, wire myograph", "settings": "PAPA/NO 0.01-10 μM, thoracic aortae with/without indomethacin", "method": "as §1, §2"}, "hypertensive patients": {"system": "hypertensive patients", "settings": "cited from earlier work"}, "[7]": {"system": "thoracic aorta of the KI and WT mice", "assay": "Agonist-induced contractile responses, wire myograph", "settings": "10 μM indomethacin", "source_text": "We next tested whether, alternatively, chronic changes in the underlying arterial smooth muscle layer could have contributed to the observed blood pressure and vasomotor phenotypes in aged NOX5 KI mice. Contractile responses to K^+ and the sensitivity and maximal responsiveness to phenylephrine and endothelin-1 did, however, not differ between KI and WT mice in all arterial segments (FIGS. 10 A-I).\nas §2"}, "[8]": {"system": "elevated blood pressure induced by NOS uncoupling", "settings": "preclinical, refs [85, 86]; cited from earlier work"}},
  "note": "Entries after “also recorded” stand apart in the source; their conditions may differ.",
  "data": [
    {"smiles": "O=C(O)CCCCN(CCc1cc(F)ccc1OCc1ccc(-c2ccc(C(F)(F)F)cc2)cc1)Cc1ccc(C(=O)O)cc1", "note": "[BAY 60-2770]", "values": [
      {"measurement": "Relaxing response, WT vs KI mice", "setting": "[1]", "value": "Neither the PAPA/NO (FIGS. 13 A-C) nor the BAY 60-2770 response (FIG. 11 D) differed"},
      {"measurement": "Relaxing response, WT vs KI mice", "setting": "[1]; listed as Bay60-2770", "value": "did not differ"}
    ]},
    {"smiles": "COC(=O)[C@@H](N)CCCNC(=N)N[N+](=O)[O-]", "note": "[L-NAME]", "values": [
      {"measurement": "Reversal of the relaxing effects of Ach", "setting": "[2]; femoral artery contracted with 258 nM endothelin-1, 100 μM L-NAME, KI and WT mice", "value": "reversed"},
      {"measurement": "Reversal of the relaxing effects of Ach", "setting": "[3]", "value": "reversed"},
      {"measurement": "Reversal of the relaxing effects of Ach", "setting": "[4]", "value": "did not modify the relaxing effects of Ach"},
      {"measurement": "Superoxide formation (DHE staining), increase in KI vs WT", "setting": "[5]", "value": "this increase was inhibited"}
    ]},
    {"smiles": "CC(=O)N[C@@H](CS)C(=O)O", "note": "[N-acetylcysteine]", "values": [
      {"measurement": "Reversal of impaired Ach-induced relaxation by antioxidant", "setting": "[2]; 10 μM N-acetylcysteine", "value": "not reversed; also recorded: Neither 10 μM N-acetylcysteine nor 100 μM tempol, however, were effective"}
    ]},
    {"smiles": "CCCN(CCCN)/[N+]([O-])=N/O", "note": "[PAPA/NO]", "values": [
      {"measurement": "Relaxing response, WT vs KI mice", "setting": "[6]", "value": "Neither the PAPA/NO (FIGS. 13 A-C) nor the BAY 60-2770 response (FIG. 11 D) differed"},
      {"measurement": "Relaxing response, WT vs KI mice", "setting": "[6]; listed as PAPA NO", "value": "did not differ"}
    ]},
    {"smiles": "Nc1nc2ncc(CNc3ccc(C(=O)N[C@@H](CCC(=O)O)C(=O)O)cc3)nc2c(=O)[nH]1", "note": "[folic acid]", "values": [
      {"measurement": "Effect on elevated blood pressure", "setting": "hypertensive patients; clinical, by improving endothelial function, refs [88, 89]", "value": "clinically effective to reduce elevated blood pressure"},
      {"measurement": "Risk of cardiovascular and cerebrovascular events", "setting": "hypertensive patients; hypertensive patients, alone or in combination with anti-hypertensives, refs [90-92]", "value": "reduces the risk of cardiovascular and cerebrovascular events"}
    ]},
    {"smiles": "COc1ccc2c(c1)c(CC(=O)O)c(C)n2C(=O)c1ccc(Cl)cc1", "note": "[indomethacin]", "values": [
      {"measurement": "Blunting of agonist-induced contractile responses, KI vs WT mice", "setting": "[7]", "value": "similar"}
    ]},
    {"smiles": "C[C@H](O)C(=O)C1=Nc2c(nc(N)[nH]c2=O)NC1", "note": "[sepiapterin]", "values": [
      {"measurement": "Ach-induced relaxation after pre-treatment", "setting": "[2]; femoral arteries of aged KI mice pre-contracted with phenylephrine, sepiapterin 100 μM", "value": "improved relaxation in KI; also recorded: greatly improved and became indistinguishable from those in WT"},
      {"measurement": "Effect on elevated blood pressure", "setting": "[8]", "value": "lower elevated blood pressure"}
    ]},
    {"smiles": "CC1(C)CC(O)CC(C)(C)N1[O]", "note": "[tempol]", "values": [
      {"measurement": "Reversal of impaired Ach-induced relaxation by antioxidant", "setting": "[2]; 100 μM tempol", "value": "not reversed; also recorded: Neither 10 μM N-acetylcysteine nor 100 μM tempol, however, were effective"}
    ]}
  ]
}
